Residues, ends and D or L forms follow the SMILES beside them.
What was measured:
dengue 2 protease [1] = biological target: T1, dengue 2 protease (Dengue virus type 2, UniProt P14340); assay: Dengue 2 protease inhibition, hydrolysis of Z-RR-MCA; type: biochemical, dengue 2 virus; parameters: Activity with inhibitors: unit not given here; settings: for activity at 2.5 µM: 2.5 μM inhibitor; for activity at 5 µM: 5 μM inhibitor; for activity at 10 µM: 10 μM inhibitor; for activity at 15 µM: 15 μM inhibitor; for activity at 40 µM: 40 μM inhibitor
T1 construct: The active site of the dengue protease is in the N-terminal part of NS3
Method: The active site of the dengue protease is in the N-terminal part of NS3 which is also a serine protease with catalytic triad Asp79-His51-Ser135, but requires […] (CF40) for activity; the inhibition reported here was studied on a […] (CF40-GGGGSGGGG-NS3; (SEQ ID NO:54)) which has also been structurally characterized [Erbel et al., 2006; Luo et al. 2008].
(§1) Substrate was added in a concentration 10 times the Km, and the inhibitor compounds of type C (C16-KGnK-C16, C16-KAnK-C16, and C16-RAnR-C16) were added in increasing concentrations (1.0, 5.0, 10.0, 20.0, 40.0 μL) from a stock solution of 2 mg in 1 mL DMSO. The residual activity was measured in a Hitachi F2500 spectrofluorimeter, and plots were fitted using the Grafit® software (Erithracus Software, Horley, Surrey, UK). All the assays were calculated by the Morrison equation for competitive inhibition (eq. 1, [Morrison, 1969]). The amount of substrate used for the tight binding titration experiments follow all the requirements, where [S]<<Km for all enzymes, so the Kiapp=Ki.
(§2) Range of Proteases Inhibited by Geminoids, Determination of Ki with Z-RR-MCA (Dengue 2 Protease) and Ac-RVRR-MCA (Furin) (SEQ ID NO:60).

dengue 2 protease [2] = biological target: T1, dengue 2 protease; assay: Dengue 2 protease inhibition in presence of Triton X-100 (detergent test, Nature Protocol); type: biochemical, dengue 2 virus; settings: 0.05% Triton X-100; for Activity with 0.05% Triton: initial activity in UAF/min
From the text: A further investigation of the interactions of the geminoid inhibitors with biological membranes and with membrane-bound proteases is needed. […] The preparation and tests of peptides symmetrically, asymmetrically and singly alkylated with saturated, short (C6), and unsaturated (C18:1) alkyl tails are in progress.

dengue 2 protease [3] = biological target: T1, dengue 2 protease; assay: Dengue 2 protease inhibition, hydrolysis of Z-RR-MCA; type: biochemical, dengue 2 virus; parameters: unit not given here; settings: 10 μM Z-RR-MCA, pH 9.0, 37° C., initial activity in UAF/min
human furin = human furin (Homo sapiens, UniProt P09958); assay: Human furin inhibition, hydrolysis of Ac-RVRR-MCA; type: biochemical; settings: for activity at 2.5 µM: 2.5 μM inhibitor; for activity at 5 µM: 5 μM inhibitor; for activity at 10 µM: 10 μM inhibitor; for activity at 15 µM: 15 μM inhibitor; for activity at 40 µM: 40 μM inhibitor; for Ki: 10 mM Mes.NaOH, pH 7.0, 2.35 μM Ac-RVRR-MCA, 37° C., read-out: Ki hFurin
Method: as §1, with “The enzyme was dissolved in 1 mL MES buffer (10 mM), 1 mM CaCl2, pH 7.0 at 36.5° C. Substrate” for “Substrate”
However, for furin we used a correction of Ki app, where [S]˜Km (eq. 2).
as §2

trypsin = biological target: T2, trypsin (Bos taurus, UniProt P00760); assay: Trypsin inhibition, fluorimetric enzyme assay; type: biochemical; settings: for remaining activity at 15 µM: 15 μM inhibitor; for remaining activity at 40 µM: 40 μM inhibitor; for remaining activity at 80 µM: 80 μM inhibitor
T2 construct: gene PRSS1
T2 sequence (P00760 24-246): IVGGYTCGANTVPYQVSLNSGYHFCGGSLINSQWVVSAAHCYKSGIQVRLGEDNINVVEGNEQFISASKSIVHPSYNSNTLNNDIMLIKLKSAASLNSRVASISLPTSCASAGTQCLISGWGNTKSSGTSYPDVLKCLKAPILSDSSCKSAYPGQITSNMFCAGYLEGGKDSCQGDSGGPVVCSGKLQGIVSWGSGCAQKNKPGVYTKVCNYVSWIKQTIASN
Method: as §1, with “The enzyme was dissolved in 1 mL MES buffer (10 mM), 1 mM CaCl2, pH 7.0 at 36.5° C. Substrate” for “Substrate”
The first group of gemini-like peptide amphiphiles to be screened was that of C16-K(G or A)nK-C16 (compound type C, with R1=n-C15H31, R2=n-C16H33). […] The results of the Ki determination for trypsin, dengue 2 protease, and human furin are given in Table 1A; some general data for the inhibition by this type of compounds are given in Table 1B. For most compounds in Table 1 the Ki could be derived from competitive inhibition experiments. Judging from the Ki values with the relatively simple substrate Z-RR-MCA, the best inhibitors for dengue 2 protease contain alanine (A) rather than glycine (G).

thrombin = thrombin (Homo sapiens, UniProt P00734); assay: Thrombin inhibition, fluorimetric enzyme assay; type: biochemical; settings: 36.5° C., read-out: Residual Activity (%) Thrombin
Method: as §1, with “The enzyme was dissolved in 1 mL MES buffer (10 mM), 1 mM CaCl2, pH 7.0 at 36.5° C. Substrate” for “Substrate”, “Kiapp=Ki. […]” for “Kiapp=Ki.”

DENV2 protease = biological target: T3, DENV2 protease (Dengue virus type 2, UniProt P14340); assay: DENV2 protease biochemical assay; settings: 50 μM inhibitor
T3 construct: The active site of the dengue protease is in the N-terminal part of NS3

DENV2 protease replicon = DENV2 protease replicon assay; type: cell-based; settings: lowest concentration with observed activity in replicon assay
[4] = 36.5° C., read-out: Residual Activity (%) Trypsin

T1 sequence (P14340 1476-1653): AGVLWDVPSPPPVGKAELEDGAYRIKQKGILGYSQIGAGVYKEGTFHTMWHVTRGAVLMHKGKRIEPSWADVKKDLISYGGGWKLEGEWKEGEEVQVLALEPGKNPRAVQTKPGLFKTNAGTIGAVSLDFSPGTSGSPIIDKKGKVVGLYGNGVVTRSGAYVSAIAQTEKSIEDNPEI
Sequence of human furin (P09958 108-794): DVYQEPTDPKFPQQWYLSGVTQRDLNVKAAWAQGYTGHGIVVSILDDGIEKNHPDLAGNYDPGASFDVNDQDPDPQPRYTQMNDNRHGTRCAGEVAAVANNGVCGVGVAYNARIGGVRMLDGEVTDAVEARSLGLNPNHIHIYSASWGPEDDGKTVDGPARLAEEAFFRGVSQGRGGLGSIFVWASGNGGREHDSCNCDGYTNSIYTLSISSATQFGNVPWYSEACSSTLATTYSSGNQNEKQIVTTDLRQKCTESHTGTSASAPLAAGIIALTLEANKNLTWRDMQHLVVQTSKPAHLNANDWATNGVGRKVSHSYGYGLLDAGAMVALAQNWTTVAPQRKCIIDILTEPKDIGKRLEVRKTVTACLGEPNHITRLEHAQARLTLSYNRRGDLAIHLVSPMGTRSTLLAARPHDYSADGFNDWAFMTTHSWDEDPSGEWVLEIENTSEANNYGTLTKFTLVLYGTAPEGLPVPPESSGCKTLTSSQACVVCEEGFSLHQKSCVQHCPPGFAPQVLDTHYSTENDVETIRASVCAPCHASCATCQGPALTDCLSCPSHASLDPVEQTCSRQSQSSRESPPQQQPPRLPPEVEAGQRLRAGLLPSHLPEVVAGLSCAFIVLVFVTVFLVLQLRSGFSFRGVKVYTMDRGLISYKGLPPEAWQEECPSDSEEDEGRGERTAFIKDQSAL
T3 sequence (P14340 1476-1653): as the sequence (P14340 1476-1653) above
T3 sequence (P14340 1398-1437): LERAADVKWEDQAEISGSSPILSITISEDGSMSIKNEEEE

SMILES | Ki (dengue 2 protease [1]) [nM] | % recovery in presence of Triton (dengue 2 protease [2]; 20 μM of inhibitor) [%] | Activity with 0.05% Triton (dengue 2 protease [2]; 20 μM of inhibitor) | Activity with inhibitors (dengue 2 protease [3]; 20 μM of inhibitor) | % recovery in presence of Triton (dengue 2 protease [2]; 30 μM of inhibitor) [%] | Activity with 0.05% Triton (dengue 2 protease [2]; 30 μM of inhibitor) | Activity with inhibitors (dengue 2 protease [3]; 30 μM of inhibitor) | activity at 5 µM (human furin; 36.5° C.) [%] | activity at 10 µM (human furin; 36.5° C.) [%] | activity at 15 µM (human furin; 36.5° C.) [%] | activity at 40 µM (human furin; 36.5° C.) [%] | activity at 5 µM (dengue 2 protease [1]; 36.5° C.) [%] | activity at 10 µM (dengue 2 protease [1]; 36.5° C.) [%] | activity at 15 µM (dengue 2 protease [1]; 36.5° C.) [%] | activity at 40 µM (dengue 2 protease [1]; 36.5° C.) [%] | remaining activity at 15 µM (trypsin; [4]) [%] | other results
CCCCCCCCCCCCNC(=O)[C@H](CCCCN)NC(=O)[C@H](C)NC(=O)[C@H](C)NC(=O)[C@H](CCCCN)NC(=O)CCCCCCCCCCC [C12KA2KC12, n-C11H23C(O)-Lys-(Ala)2-Lys-(n-C12H25).2TFA] (HELM PEPTIDE1{[CCCCCCCCCCCC(=O)[*:2]].K.A.A.K.[CCCCCCCCCCCCN[*:1]]}$$$$V2.0) | 11600 | 95 | 216 | 5 | – | – | – | – | – | – | – | – | – | – | – | – | –
CCCCCCCCCCCCNC(=O)[C@H](CCCCN)NC(=O)[C@H](CCCCN)NC(=O)CCCCCCCCCCC [C12KKC12, n-C11H23C(O)-Lys-Lys-(n-C12H25).2TFA] | 132000 | – | – | – | 82 | 180 | 0 | – | – | – | – | – | – | – | – | – | –
CCCCCCCCCCCCCCCCNC(=O)[C@H](CCCCN)NC(=O)[C@H](C)NC(=O)[C@H](C)NC(=O)[C@H](C)NC(=O)[C@H](C)NC(=O)[C@H](CCCCN)NC(=O)CCCCCCCCCCCCCCC [C16-KAAAAK-C16] (HELM PEPTIDE1{[CCCCCCCCCCCCCCCC(=O)[*:2]].K.A.A.A.A.K.[CCCCCCCCCCCCCCCCN[*:1]]}$$$$V2.0) | 2400 | 67 | 133 | 47 | – | – | – | 59 | 52 | 45 | 0 | 90 | 85 | 79 | 45 | 73 | activity at 2.5 µM (human furin; 36.5° C.): 70%; Ki (human furin): 1750 nM; activity at 2.5 µM (dengue 2 protease [1]; 36.5° C.): 94%; remaining activity at 40 µM (trypsin; [4]): 35%; remaining activity at 80 µM (trypsin; [4]): 20%
CCCCCCCCCCCCCCCCNC(=O)[C@H](CCCCN)NC(=O)[C@H](C)NC(=O)[C@H](C)NC(=O)[C@H](C)NC(=O)[C@H](CCCCN)NC(=O)CCCCCCCCCCCCCCC [C16-KAAAK-C16] (HELM PEPTIDE1{[CCCCCCCCCCCCCCCC(=O)[*:2]].K.A.A.A.K.[CCCCCCCCCCCCCCCCN[*:1]]}$$$$V2.0) | 1410 | – | – | – | 50 | 91 | 0 | 56 | 24 | 10 | 0 | 85 | 75 | 64 | 25 | 79 | activity at 2.5 µM (human furin; 36.5° C.): 73%; Ki (human furin): 1720 nM; activity at 2.5 µM (dengue 2 protease [1]; 36.5° C.): 91%; Ki (trypsin): 40300 nM; remaining activity at 40 µM (trypsin; [4]): 54%; remaining activity at 80 µM (trypsin; [4]): 40%
CCCCCCCCCCCCCCCCNC(=O)[C@H](CCCCN)NC(=O)CNC(=O)[C@H](CCCCN)NC(=O)CCCCCCCCCCCCCCC [C16-KGK-C16, C15H31CO-KGK-NH—C16H33] | 1560 | – | – | – | – | – | – | 53 | 18 | 7 | 0 | 75 | 54 | 40 | 2 | 76 | activity at 20 µM (human furin; 20 μM inhibitor, 36.5° C.): 4%; activity at 20 µM (dengue 2 protease [1]; 20 μM inhibitor, 36.5° C.): 29%; Activity with inhibitors (dengue 2 protease [1]; 25 μM of inhibitor, 10 μM Z-RR-MCA, pH 9.0, 37° C., initial activity in UAF/min): 50; % recovery in presence of Triton (dengue 2 protease [2]; 25 μM of inhibitor): 48%; Activity with 0.05% Triton (dengue 2 protease [2]; 25 μM of inhibitor): 90; remaining activity at 15 µM (thrombin; 15 μM inhibitor): 75%; remaining activity at 55 µM (thrombin; 55 μM inhibitor): 61%; remaining activity at 85 µM (thrombin; 85 μM inhibitor): 40%; inhibition at 50 µM (DENV2 protease): 103%; Replicon activity [μM] (1) (DENV2 protease replicon): 1.0 µM; Ki (trypsin): 41600 nM; remaining activity at 55 µM (trypsin; 55 μM inhibitor, 36.5° C., read-out: Residual Activity (%) Trypsin): 40%; remaining activity at 85 µM (trypsin; 85 μM inhibitor, 36.5° C., read-out: Residual Activity (%) Trypsin): 24%
CCCCCCCCCCCCCCCCNC(=O)[C@H](CCCNC(=N)N)NC(=O)[C@H](C)NC(=O)[C@H](C)NC(=O)[C@H](CCCNC(=N)N)NC(=O)CCCCCCCCCCCCCCC [C16RA2RC16, n-C15H31C(O)-Arg-(Ala)2-Arg-(n-C16H33).2TFA] (HELM PEPTIDE1{[CCCCCCCCCCCCCCCC(=O)[*:2]].R.A.A.R.[CCCCCCCCCCCCCCCCN[*:1]]}$$$$V2.0) | 2100 | – | – | – | 61 | 128 | 0 | – | – | – | – | – | – | – | – | – | –
CCCCCCCCCCCCCCCCNC(=O)[C@H](CCCNC(=N)N)NC(=O)[C@H](C)NC(=O)[C@H](C)NC(=O)[C@H](C)NC(=O)[C@H](C)NC(=O)[C@H](CCCNC(=N)N)NC(=O)CCCCCCCCCCCCCCC [C16RA4RC16, n-C15H31C(O)-Arg-(la)4-Arg-(n-C16H33).2TFA] (HELM PEPTIDE1{[CCCCCCCCCCCCCCCC(=O)[*:2]].R.A.A.A.A.R.[CCCCCCCCCCCCCCCCN[*:1]]}$$$$V2.0) | 1400 | 68 | 164 | 22 | – | – | – | – | – | – | – | – | – | – | – | – | –
CCCCCCCCCCCCCCCCNC(=O)[C@H](CCCNC(=N)N)NC(=O)[C@H](CCCNC(=N)N)NC(=O)CCCCCCCCCCCCCCC [C16RRC16, n-C15H31C(O)-Arg-Arg-(n-C16H33).2TFA] | 800 | 74 | 148 | 48 | – | – | – | – | – | – | – | – | – | – | – | – | –

From patent US20220017572A1, “GEMINOID LIPOPEPTIDE COMPOUNDS AND THEIR USES” (Erasmus University Medical Center Rotterdam, priority 2016, published 2022)
